# Laboratory results as given in PMC11071649, “Synthesis and Selective Anticancer Activity Evaluation of 2-phenylacrylonitrile Derivatives as Tubulin Inhibitors” (Current Medicinal Chemistry, 2024).
# Entries after “also recorded” stand apart in the source; their conditions may differ. Marks after values point to notes of the source that are not given here.
# Legend:
# A549 lung cancer cell = experiment: MTT anti-proliferative assay, A549; type: cell-based, human; conditions: for IC50: Homo sapiens, A549, MTT, 48 h
# Procedure, shortened: (§1)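 Cells grown in DMEM supplemented with FBS were seeded in 96-well format and treated with the analogs. Cytotoxicity was scored by MTT as reduction of net growth.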
# AGS gastric cancer cell = experiment: MTT anti-proliferative assay, AGS; type: cell-based, human; conditions: for IC50: Homo sapiens, MTT, 48 h
# Procedure, shortened: as §1
# [1] = tested on: BEL-7402 liver cancer cell; experiment: MTT anti-proliferative assay, BEL-7402; type: cell-based, human; conditions: for IC50: Homo sapiens, Bel-7402, MTT, 48 h
# Procedure, shortened: as §1
# [2] = tested on: HCT116 colectal cancer cell; experiment: MTT anti-proliferative assay, HCT116; type: cell-based, human; conditions: for IC50: Homo sapiens, HCT-116, MTT, 48 h
# Procedure, shortened: as §1
# [3] = tested on: HeLa cervical cancer cell; experiment: MTT anti-proliferative assay, HeLa; type: cell-based, human; conditions: for IC50: Homo sapiens, HeLa, MTT, 48 h
# Procedure, shortened: as §1
# HepG2 hepatoma cell = experiment: MTT anti-proliferative assay, HepG2; type: cell-based, human; conditions: for IC50: Homo sapiens, HepG2, MTT, 48 h, read-out: IC50 HepG-2
# Procedure, shortened: as §1
# L-02 normal liver cell = experiment: MTT assay, L-02 normal cells; type: cell-based, human; conditions: Homo sapiens, 48 h
# Procedure, shortened: as §1
# [4] = tested on: MGC-803 late stage differentiation gastric cancer cell; experiment: MTT anti-proliferative assay, MGC-803; type: cell-based, human; conditions: for IC50: Homo sapiens, MGC-803, MTT, 48 h
# Procedure, shortened: as §1
# MCF-7 breast cancer cell = experiment: MTT anti-proliferative assay, MCF-7; type: cell-based, human; conditions: for IC50: Homo sapiens, MCF7, MTT, 48 h
# Procedure, shortened: as §1
# [5] = tested on: MCF-10A normal breast cell; experiment: MTT assay, MCF-10A normal cells; type: cell-based, human; conditions: Homo sapiens, MCF-10A, 48 h
# Procedure, shortened: as §1
# [6] = tested on: Raji B lymphoblastoid cell; experiment: MTT anti-proliferative assay, Raji; type: cell-based, human; conditions: for IC50: Homo sapiens, Raji, MTT, 48 h, read-out: IC50 Raji
# Procedure, shortened: as §1
# [7] = tested on: SGC-7901 early differentiation gastric cancer cell; experiment: MTT anti-proliferative assay, SGC-7901; type: cell-based, human; conditions: for IC50: Homo sapiens, SGC-7901, MTT, 48 h
# Procedure, shortened: as §1
# [8] = tested on: diffuse large B-cell lymphoma SU-DHL-10 cell; experiment: MTT anti-proliferative assay, SU-DHL-10; type: cell-based, human; conditions: for IC50: Homo sapiens, SU-DHL10, MTT, 48 h, read-out: IC50 SU-DHL-10
# Procedure, shortened: as §1
# MGC-803 cancer cells = tested on: MGC-803 cancer cells; parameters: method as in PMID 29516624, PMID 30244610; conditions: Fig. 1; cited from earlier work
# L-02 normal cells = tested on: L-02 normal cells; parameters: method as in PMID 27887843, PMID 29516624, PMID 30244610; conditions: Fig. 1; cited from earlier work
# HeLa cancer cells = tested on: HeLa cancer cells; parameters: method as in PMID 27887843; conditions: Fig. 1; cited from earlier work
# HCT116 cells = experiment: Apoptosis by flow cytometry (annexin V-FITC/PI), HCT116; type: cell-based, human; conditions: 0.1 μM, 12 h
# Description: (§2) pH of the solution was adjusted to 2 with HCl solution (1 M), and the precipitate was subsequently collected by suction filtra- […]
# (§3) in DMF (40 mL) at 0°C. After 2 h reaction, the mixture was poured into 300 mL ice water and mixed completely. Then adjust […]
# (§4) mL) at 0°C, then after 15 min stirring, benzyl chloride (33 mmol) was added. The reaction mixture was moved to RT and al-lowed to continue, after which it was deemed essentially complete by TLC. Then the solution was removed and the mixture […]
# (§5) 1.6. Cell lines and cell culture
# (§6) MTT was purchased from Sigma-Aldrich Co. (St. Louis, MO, USA). The PI and Annexin V-FITC apoptosis detection kit were purchased from Invitrogen (Eugene, OR, USA). All human cell lines were used in this study. […]
# (§7) the anti-proliferative activities were determined by MTT assay. […]
# (§8) respectively. […] After 12 h, the cell detached, fixed, and analyzed the cell cycle by flow cytometry using a FACS Calibur flow cytometer with Cell Quest software (Becton-Dickinson, Franklin Lakes, NJ). […]
# (§9) Apoptosis was detected using an apoptosis detecti5 on kit. […]
# (§10) Vehicle group was treated with 0.1% DMSO. Following 12 h of incubation, cells were analyzed for apoptosis as previously described method, using a FACS Calibur flow cytometer with Cell Quest software (Becton-Dickinson, Franklin Lakes, NJ). […]
# (§11) Quantitative cell migration was performed using 24-well Boyden chambers (Corning, NY, USA) as described. […]
# L-02 cells [9] = experiment: Apoptosis by flow cytometry (annexin V-FITC/PI), L-02; type: cell-based, human; conditions: 12 h
# Description: as §2, §3, §4, §5, §6, §7, §8, §9, §10, §11
# L-02 cells [10] = experiment: Transwell cell migration assay, L-02; type: cell-based, human; conditions: 24 h
# Description: Aggressive tumors have a strong ability to proliferate and migrate, and in many cases, cell mobility affects cell proliferation. […]
# as §2, §3, §4, §5
# MTT was purchased from Sigma-Aldrich Co. (St. Louis, MO, USA). […]
# as §7, §8, §9, §10, §11
# [11] = tested on: HCT116 colon cancer xenograft; experiment: In vivo antitumor activity, colon cancer xenograft; parameters: species or system Nu/Nu nude mice
# Human β-tubulin (TUBB) [12] = molecular target: T1, Human β-tubulin (TUBB) (Homo sapiens, UniProt P07437+P68363); experiment: Tubulin polymerization inhibition, ELISA kit, HCT-116 cells; conditions: HCT-116, read-out: Tubulin % inhibition
# T1 sequence (P07437 whole entry): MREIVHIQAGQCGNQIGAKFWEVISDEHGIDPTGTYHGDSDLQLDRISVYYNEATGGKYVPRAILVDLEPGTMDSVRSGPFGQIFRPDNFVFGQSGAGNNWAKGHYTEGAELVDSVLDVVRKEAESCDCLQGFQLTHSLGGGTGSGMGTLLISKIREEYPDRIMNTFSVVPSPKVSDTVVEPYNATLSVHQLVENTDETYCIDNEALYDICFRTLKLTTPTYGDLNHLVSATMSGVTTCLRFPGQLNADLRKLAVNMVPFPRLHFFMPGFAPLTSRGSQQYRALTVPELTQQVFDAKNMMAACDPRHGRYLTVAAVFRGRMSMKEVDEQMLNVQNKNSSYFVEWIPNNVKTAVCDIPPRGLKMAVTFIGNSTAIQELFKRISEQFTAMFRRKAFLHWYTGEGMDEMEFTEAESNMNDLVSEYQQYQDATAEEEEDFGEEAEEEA
# T1 sequence (P68363 whole entry): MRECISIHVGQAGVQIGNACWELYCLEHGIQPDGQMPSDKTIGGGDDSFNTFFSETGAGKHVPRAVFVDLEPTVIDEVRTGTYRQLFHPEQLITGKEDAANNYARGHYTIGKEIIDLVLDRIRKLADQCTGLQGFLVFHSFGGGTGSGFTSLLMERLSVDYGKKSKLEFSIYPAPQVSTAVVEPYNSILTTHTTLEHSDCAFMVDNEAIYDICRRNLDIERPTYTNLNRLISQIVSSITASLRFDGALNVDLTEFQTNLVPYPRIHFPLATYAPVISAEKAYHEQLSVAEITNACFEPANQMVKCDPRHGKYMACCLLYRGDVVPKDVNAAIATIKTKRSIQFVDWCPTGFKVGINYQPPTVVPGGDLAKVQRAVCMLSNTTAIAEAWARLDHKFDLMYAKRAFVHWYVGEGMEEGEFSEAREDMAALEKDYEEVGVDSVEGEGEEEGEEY
# Human β-tubulin (TUBB) [13] = molecular target: T1, Human β-tubulin (TUBB); experiment: Tubulin polymerization inhibition, ELISA kit, BEL-7402 cells; conditions: Bel-7402, read-out: Tubulin % inhibition
SMILES,IC50 (A549 lung cancer cell),IC50 (AGS gastric cancer cell),IC50 [1],"SI (selectivity index), IC50 (L-02)/IC50 (HCT-116) [2]",IC50 [2],IC50 [3],IC50 (HepG2 hepatoma cell),IC50 (L-02 normal liver cell),IC50 [4],IC50 (MCF-7 breast cancer cell),IC50 [5],"SI (selectivity index), IC50 (L-02)/IC50 (Raji) [6]",IC50 [6],IC50 [7],IC50 [8],IC50 (MGC-803 cancer cells),IC50 (L-02 normal cells),IC50 (HeLa cancer cells),other results
"COc1ccc(/C=C\c2cc(OC)c(OC)c(OC)c2)cc1O [CA-4, combretastatin A-4, reference compound]",> 100 µM,3.4 ± 0.01 µM,2 ± 0.03 µM,> 6.8^c,0.16 ± 0.001 µM,> 100 µM,> 100 µM,1.1 ± 0.03 µM,0.06 ± 0.02 µM,0.2 ± 0.1 µM,3.2 ± 1.2 µM,> 5.8^c,0.18 ± 0.001 µM,0.3 ± 0.001 µM,1.1 ± 0.1 µM,0.06 ± 0.01 µM,1.1 ± 0.03 µM,,"SI (selectivity index), IC50 (L-02)/IC50 (MGC-803) [4]: > 18.3^c; SI (selectivity index), IC50 (MCF-10A)/IC50 (MCF-7) (MCF-7 breast cancer cell): > 14.6^d; SI (selectivity index), IC50 (L-02)/IC50 (SGC-7901) [7]: > 3.6^c"
"COc1cc(/C(C#N)=C/c2ccc(C)cc2)cc(OC)c1OC [Compound 1, (Z)-3-(p-tolyl)-2-(3,4,5-trimethoxyphenyl)acrylonitrile]",,,,,,,,,,,,,,,,< 0.01 µM,> 100 µM,,
"COc1cc(OC)cc(/C(C#N)=C/c2ccc(Br)cc2)c1 [Compound 2, (Z)-3-(4-bromophenyl)-2-(3,5-dimethoxyphenyl)acrylonitrile]",,,,,,,,,,,,,,,,,> 100 µM,4.2 µM,
N#C/C(=C\c1ccc(/C=C/C(=O)c2ccc(Br)cc2)cc1)c1ccc(OC(F)(F)F)cc1 [Compound 8d],> 100 µM,31.8 ± 6.1 µM,> 100 µM,> 1.7,35.3 ± 6.5 µM,> 100 µM,> 100 µM,> 100 µM,> 100 µM,53.1 ± 7.1 µM,37.3 ± 4.3 µM,> 79.3,3 ± 1 µM,> 100 µM,7.1 ± 2.6 µM,,,,"SI (selectivity index), IC50 (L-02)/IC50 (SU-DHL-10) [8]: > 14.0; melting point: 145 to 147 °C"
"N#C/C(=C\c1cn(Cc2ccccc2)c2ccccc12)c1ccc(OC(F)(F)F)cc1 [Compound 9, (Z)-3-(1-benzyl-1H-indol-3-yl)-2-(4-(trifluoromethoxy)phenyl)acrylonitrile]",> 100 µM,> 100 µM,> 100 µM,,> 100 µM,> 100 µM,> 100 µM,> 100 µM,> 100 µM,> 100 µM,> 100 µM,,> 100 µM,> 100 µM,> 100 µM,,,,melting point: 118 to 120 °C
"Oc1ccc(/C=C/c2cc(O)cc(O)c2)cc1 [Resveratrol, resveratrol, reference compound]",> 100 µM,> 100 µM,42.5 ± 5.4 µM,,16.7 ± 3.6 µM,> 100 µM,> 100 µM,12.8 ± 0.2 µM,> 100 µM,72.4 ± 9.9 µM,> 100 µM,,> 100 µM,> 100 µM,> 100 µM,,,120 µM,
"CC(=O)O[C@H]1C(=O)[C@@]2(C)[C@H]([C@H](OC(=O)c3ccccc3)[C@]3(O)C[C@H](OC(=O)[C@H](O)[C@@H](NC(=O)c4ccccc4)c4ccccc4)C(C)=C1C3(C)C)[C@]1(OC(C)=O)CO[C@@H]1C[C@@H]2O [Taxol, Paclitaxel, reference compound]",0.4 ± 0.02 µM,0.02 ± 0.01 µM,0.09 ± 0.02 µM,> 3333^c,0.03 ± 0.01 µM,12.9 ± 0.4 µM,0.9 ± 0.03 µM,> 100 µM,0.06 ± 0.01 µM,0.08 ± 0.01 µM,0.18 ± 0.02 µM,> 384^c,0.26 ± 0.02 µM,> 100 µM,0.18 ± 0.03 µM,0.06 ± 0.01 µM,> 100 µM,13 µM,"SI (selectivity index), IC50 (L-02)/IC50 (A549) (A549 lung cancer cell): > 227^c; SI (selectivity index), IC50 (L-02)/IC50 (AGS) (AGS gastric cancer cell): > 5000^c; SI (selectivity index), IC50 (L-02)/IC50 (BEL-7402) [1]: > 1111^c; SI (selectivity index), IC50 (L-02)/IC50 (HeLa) [3]: > 7.7^c; SI (selectivity index), IC50 (L-02)/IC50 (HepG-2) (HepG2 hepatoma cell): > 106^c; SI (selectivity index), IC50 (MCF-10A)/IC50 (MCF-7) (MCF-7 breast cancer cell): > 2.2^d; SI (selectivity index), IC50 (L-02)/IC50 (SU-DHL-10) [8]: > 555^c; percentage of total apoptotic (early and late stage) HCT116 cells (HCT116 cells): 26.8%; apoptosis in normal L-02 cells (L-02 cells [9]): almost no apoptosis; migration of normal L-02 cells (L-02 cells [10]): almost no migration; mouse body weight ([11]; 25 mg/kg/day, xenograft mice): decreased significantly; average volume and weight of the tumor versus control group ([11]; 1g2a 12.5, 25, 50 mg/kg, taxol 25 mg/kg, from day 10): significantly lower; also recorded: inhibited the growth of tumors; inhibition at 0.01 µM (Human β-tubulin (TUBB) [12]): 19.1 ± 6.27%; inhibition at 0.1 µM (Human β-tubulin (TUBB) [12]): 36.5 ± 6.07%; inhibition at 1 µM (Human β-tubulin (TUBB) [12]): 46 ± 4.89%; inhibition at 0.01 µM (Human β-tubulin (TUBB) [13]): 15 ± 2.65%; inhibition at 0.1 µM (Human β-tubulin (TUBB) [13]): 20.1 ± 5.34%; inhibition at 1 µM (Human β-tubulin (TUBB) [13]): 29.6 ± 4.88%"
